Test results published in patent US12310365B2 (priority 2009, dated 2025).
Structures can show the parent of a compound that is named as a salt. Where two headings read alike, the source gives them in different places.

Assays:
Type in all cases: in vivo
[1] = system: Pseudoperonospora cubensis; assay: Cucumber downy mildew preventive test; conditions: Pseudoperonospora cubensis, topical, 168 h; for pest or weed control at 10 ppm: treatment concentration 10 ppm
Phytophthora infestans [2] = assay: whole plant or invertebrate; conditions: in Solanum lycopersicum, topical, 168 h, read-out: Control value
Phytophthora infestans [3] = assay: whole plant or invertebrate; conditions: in Solanum lycopersicum, topical, 168 h, read-out: Control value; remark: listed apart in the source
[4] = system: Pseudoperonospora cubensis; assay: Cucumber downy mildew curative test; conditions: Pseudoperonospora cubensis, topical, 168 h, single ingredient; for pest or weed control at 10 ppm: treatment concentration 10 ppm
Pyricularia oryzae [5] = assay: whole plant or invertebrate; conditions: topical, 168 h, read-out: Control value
Sphaerotheca fuliginea [6] = assay: Cucumber powdery mildew curative test; conditions: Podosphaera fuliginea, topical, 168 h; for pest or weed control at 10 ppm: treatment concentration 10 ppm; for pest or weed control at 20 ppm: treatment concentration 20 ppm
Sphaerotheca fuliginea [7] = assay: Cucumber powdery mildew preventive test; conditions: Podosphaera fuliginea, topical, 168 h; for pest or weed control at 10 ppm: treatment concentration 10 ppm; for pest or weed control at 20 ppm: treatment concentration 20 ppm
[8] = system: Botrytis cinerea (Diethofencarb-resistant strain); assay: Tomato gray mold preventive test (Diethofencarb-resistant strain); conditions: Botrytis cinerea, topical, 48 h, read-out: Control value
Pyricularia oryzae [9] = assay: whole plant or invertebrate; conditions: topical, 168 h, read-out: Control value; remark: listed apart in the source
[10] = treatment concentration 160 ppm

**Q.** Which pest or weed control at 40 ppm ([1]; treatment concentration 40 ppm) does the source give for `N#Cc1c(Cl)c(Cl)c(Cl)c(C#N)c1Cl` [TPN, Chlorothalonil (TPN)] here?
**A.** The pest or weed control at 40 ppm was 60%.

**Q.** And the pest or weed control at 40 ppm (Phytophthora infestans [2])?
**A.** Its pest or weed control at 40 ppm is 0%.

**Q.** And the pest or weed control at 40 ppm (Phytophthora infestans [3])?
**A.** Its pest or weed control at 40 ppm is 0%.

**Q.** And the pest or weed control at 40 ppm ([4]; treatment concentration 40 ppm)?
**A.** Its pest or weed control at 40 ppm is 83%.

**Q.** For `Cc1ccc(C(=O)NC[C@@H](NC(=O)OCc2ccccc2)C(C)C)cc1` [Compound 2008, Benzyl ((1S)-2-methyl-1-{[(4-methylbenzoyl)amino]methyl}propyl)carbamate], which pest or weed control at 5 ppm (Pyricularia oryzae [5]) is on record?
**A.** The pest or weed control at 5 ppm was 33%.

**Q.** Which results are given for `CC(C)(C)C(=O)C(Oc1ccc(Cl)cc1)n1cncn1` (stereo not drawn) [Triadimefon]?
**A.** pest or weed control at 10 ppm (Sphaerotheca fuliginea [6]): 67%; pest or weed control at 10 ppm (Sphaerotheca fuliginea [7]): 0%

**Q.** `Cc1ccc(C(=O)NC[C@@H](NC(=O)OC(C)C)C(F)(F)F)cc1` [Compound 2009, Isopropyl ((1R)-2,2,2-trifluoro-1-{[(4-methylbenzoyl)amino]methyl}ethyl)-carbamate] was tested. Which pest or weed control at 5 ppm (Pyricularia oryzae [5]) did it give?
**A.** The pest or weed control at 5 ppm was 67%.

**Q.** For `CC#Cc1cc(C)nc(Nc2ccccc2)n1` [Mepanipyrim], which pest or weed control at 20 ppm (Sphaerotheca fuliginea [6]) is on record?
**A.** Its pest or weed control at 20 ppm is 75%.

**Q.** And the pest or weed control at 20 ppm (Sphaerotheca fuliginea [7])?
**A.** The pest or weed control at 20 ppm was 0%.

**Q.** For `CC1(C)N=C(c2cnc3ccccc3c2)c2cccc(F)c2C1(C)C` [Compound A, 3-(5-fluoro-3,3,4,4-tetramethyl-3,4-dihydroisoquinolin-1-yl)quinoline], which pest or weed control at 10 ppm [1] is on record?
**A.** The pest or weed control at 10 ppm was 20%.

**Q.** What about the pest or weed control at 10 ppm (Sphaerotheca fuliginea [6]) of the same molecule?
**A.** Its pest or weed control at 10 ppm is 67%.

**Q.** What about the pest or weed control at 10 ppm (Phytophthora infestans [2]) of the same molecule?
**A.** The pest or weed control at 10 ppm was 0%.

**Q.** What about the pest or weed control at 10 ppm (Phytophthora infestans [3]) of the same molecule?
**A.** Its pest or weed control at 10 ppm is 0%.

**Q.** And the pest or weed control at 10 ppm (Sphaerotheca fuliginea [7])?
**A.** The pest or weed control at 10 ppm was 50%.

**Q.** What about the pest or weed control at 10 ppm [4] of the same molecule?
**A.** Its pest or weed control at 10 ppm is 17%.

**Q.** What about the pest or weed control at 10 ppm [8] of the same molecule?
**A.** The pest or weed control at 10 ppm was 83%.

**Q.** For `Cc1ccc(C(=O)NC[C@@H](NC(=O)OC(C)C)C(C)C)cc1` [Compound 2001, Isopropyl ((1S)-2-methyl-1-{[(4-methylbenzoyl)amino]methyl}propyl)-carbamate], which pest or weed control at 5 ppm (Pyricularia oryzae [5]) is on record?
**A.** Its pest or weed control at 5 ppm is 33%.

**Q.** With `Cc1ccc(C(=O)NC[C@H](C)NC(=O)OCC(F)(F)F)cc1` [Compound 2007, 2,2,2-Trifluoroethyl {(1S)-1-methyl-2-[(4-methylbenzoyl)amino]ethyl}-carbamate] as the molecule, how does the pest or weed control at 5 ppm (Pyricularia oryzae [5]) read?
**A.** The pest or weed control at 5 ppm was 67%.

**Q.** What does the source list for `CC1(C)N=C(c2cnc3ccccc3c2)c2cccc(F)c2C1(F)F` [C, 3-(4,4,5-trifluoro-3,3-dimethyl-3,4-dihydroisoquinolin-1-yl)quinoline]?
**A.** pest or weed control at 10 ppm [1]: 33%; pest or weed control at 10 ppm (Sphaerotheca fuliginea [6]): 73%; pest or weed control at 10 ppm (Phytophthora infestans [2]): 0%; pest or weed control at 10 ppm (Phytophthora infestans [3]): 0%; pest or weed control at 10 ppm (Sphaerotheca fuliginea [7]): 65%; pest or weed control at 10 ppm [4]: 33%; pest or weed control at 10 ppm [8]: 80%

**Q.** `Cc1ccc(C(=O)NC[C@@H](NC(=O)OC(C)C)C(C)(C)C)cc1` [Compound 2002, Isopropyl ((1S)-2,2-dimethyl-1-{[(4-methylbenzoyl)amino]methyl}propyl)-carbamate] was tested. Which pest or weed control at 5 ppm (Pyricularia oryzae [5]) did it give?
**A.** Its pest or weed control at 5 ppm is 33%.

**Q.** What does the source list for `CCCOC(=O)NCCCN(C)C` [Propamocarb hydrochloride]?
**A.** pest or weed control at 160 ppm [1, 10]: 20%; pest or weed control at 160 ppm (Phytophthora infestans [2]): 0%; pest or weed control at 160 ppm (Phytophthora infestans [3]): 0%; pest or weed control at 160 ppm [4, 10]: 0%

**Q.** With `CO/N=C(/C(=O)OC)c1ccccc1COc1ccccc1C` [Kresoxim-methyl] as the molecule, how does the pest or weed control at 20 ppm (Sphaerotheca fuliginea [6]) read?
**A.** Its pest or weed control at 20 ppm is 67%.

**Q.** And the pest or weed control at 20 ppm (Sphaerotheca fuliginea [7])?
**A.** Its pest or weed control at 20 ppm is 17%.

**Q.** `Cc1ccc(C(=O)NC[C@@H](NC(=O)OCC(F)(F)F)C(C)(C)C)cc1` [Compound 2005, 2,2,2-Trifluoroethyl ((1S)-2,2-dimethyl-1-{[(4-methylbenzoyl)amino]methyl}-propyl)carbamate] was tested. Which pest or weed control at 5 ppm (Pyricularia oryzae [5]) did it give?
**A.** The pest or weed control at 5 ppm was 67%.

**Q.** What does the source list for `CC1(C)N=C(c2cnc3ccccc3c2)c2ccccc2C1(F)F` [B, 3-(4,4-difluoro-3,3-dimethyl-3,4-dihydroisoquinolin-1-yl)quinoline]?
**A.** pest or weed control at 10 ppm [1]: 28%; pest or weed control at 10 ppm (Sphaerotheca fuliginea [6]): 73%; pest or weed control at 10 ppm (Phytophthora infestans [2]): 0%; pest or weed control at 10 ppm (Phytophthora infestans [3]): 0%; pest or weed control at 10 ppm (Sphaerotheca fuliginea [7]): 60%; pest or weed control at 10 ppm [4]: 33%; pest or weed control at 10 ppm (Pyricularia oryzae [9]): 86%; pest or weed control at 10 ppm (Pyricularia oryzae [5]): 83%; pest or weed control at 10 ppm [8]: 83%

**Q.** With `C[Si](C)(C)CC(O)(Cn1cncn1)c1ccc(F)cc1` (stereo not drawn) [Simeconazole] as the molecule, how does the pest or weed control at 10 ppm (Sphaerotheca fuliginea [6]) read?
**A.** Its pest or weed control at 10 ppm is 33%.

**Q.** And the pest or weed control at 10 ppm (Sphaerotheca fuliginea [7])?
**A.** The pest or weed control at 10 ppm was 0%.

**Q.** What about the pest or weed control at 10 ppm [8] of the same molecule?
**A.** Its pest or weed control at 10 ppm is 33%.

**Q.** For `Cc1ccc(C(=O)NC[C@@H](NC(=O)OCC(F)(F)F)C(C)C)cc1` [Compound 2004, 2,2,2-Trifluoroethyl ((1S)-2-methyl-1-{[(4-methylbenzoyl)amino]methyl}-propyl)carbamate], which pest or weed control at 5 ppm (Pyricularia oryzae [5]) is on record?
**A.** Its pest or weed control at 5 ppm is 67%.

**Q.** Which results are given for `CCCCC(O)(Cn1cncn1)c1ccc(Cl)cc1Cl` (stereo not drawn) [Hexaconazole]?
**A.** pest or weed control at 2 ppm (Sphaerotheca fuliginea [6]; treatment concentration 2 ppm): 75%; pest or weed control at 2 ppm (Sphaerotheca fuliginea [7]; treatment concentration 2 ppm): 17%

**Q.** With `CC(C)OC(=O)N[C@H](CNC(=O)c1cc2ccccc2o1)C(C)C` [Compound 2003, Isopropyl ((1S)-1-{[(1-benzofuran-2-ylcarbonyl)amino]methyl}-2-methyl-propyl)carbamate] as the molecule, how does the pest or weed control at 5 ppm (Pyricularia oryzae [5]) read?
**A.** The pest or weed control at 5 ppm was 50%.

**Q.** `CC(C)[C@@H](CNC(=O)c1cc2ccccc2o1)NC(=O)OCC(F)(F)F` [Compound 2006, 2,2,2-Trifluoroethyl ((1S)-1-{[(1-benzofuran-2-ylcarbonyl)amino]methyl}-2-methylpropyl)carbamate] was tested. Which pest or weed control at 5 ppm (Pyricularia oryzae [5]) did it give?
**A.** Its pest or weed control at 5 ppm is 67%.
